Results published in the supplement of paper PMC10307832.

Assays:
Experiment in all cases: relative viability (nuclei count vs DMSO), 5 days (fraction); higher = more cells survive
[1] = compound: CC(C)N(CCCNC(=O)Nc1ccc(C(C)(C)C)cc1)C[C@H]1O[C@@H](n2ccc3c(N)ncnc32)[C@H](O)[C@@H]1O + Cc1cc(Nc2cc(N3CCN(C)CC3)nc(Sc3ccc(NC(=O)C4CC4)cc3)n2)n[nH]1 [Tozasertib] (partner 0.1 µM)
How it was run: (§1)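 One day after seeding in 1536-well plates, lung cancer cell lines were dosed by pin tool. Dosing was either single-drug or a fixed anchor-drug dose plus five library-drug doses (not always all listed) in √10 steps. After 5 days, nuclei were stained in one fix-and-stain step and counted on 4× images, and relative viability is the nuclei count of treated wells over that of vehicle wells, given as the median of duplicate plates.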

[2] = compound: CC(C)N(CCCNC(=O)Nc1ccc(C(C)(C)C)cc1)C[C@H]1O[C@@H](n2ccc3c(N)ncnc32)[C@H](O)[C@@H]1O + Nc1nc2[nH]cc(CCc3ccc(C(=O)N[C@@H](CCC(=O)O)C(=O)O)cc3)c2c(=O)[nH]1 [Pemetrexed] (partner 0.2 µM)
How it was run: as §1

[3] = compound: CC(C)=CC[C@@H](O)C1=CC(=O)c2c(O)ccc(O)c2C1=O [Shikonin] + Nc1nc2[nH]cc(CCc3ccc(C(=O)N[C@@H](CCC(=O)O)C(=O)O)cc3)c2c(=O)[nH]1 [Pemetrexed] (partner 0.2 µM)
How it was run: as §1

[4] = compound: CC(C)N(CCCNC(=O)Nc1ccc(C(C)(C)C)cc1)C[C@H]1O[C@@H](n2ccc3c(N)ncnc32)[C@H](O)[C@@H]1O + COc1cc2c(Oc3ccc(NC(=O)C4(C(=O)Nc5ccc(F)cc5)CC4)cc3F)ccnc2cc1OCCCN1CCOCC1 [Foretinib] (partner 0.25 µM)
How it was run: as §1

Row | Cell Line | relative viability ([1]; first compound 0.08 µM) | relative viability ([1]; first compound 0.253 µM) | relative viability ([1]; first compound 0.8 µM) | relative viability ([1]; first compound 2.53 µM) | relative viability ([1]; first compound 8 µM) | relative viability ([2]; first compound 0.08 µM) | relative viability ([2]; first compound 0.253 µM) | relative viability ([2]; first compound 0.8 µM) | relative viability ([2]; first compound 2.53 µM) | relative viability ([2]; first compound 8 µM) | relative viability ([3]; first compound 0.01 µM) | relative viability ([3]; first compound 0.1 µM) | relative viability ([3]; first compound 0.3162 µM) | relative viability ([3]; first compound 1 µM) | relative viability ([4]; first compound 0.08 µM) | relative viability ([4]; first compound 0.253 µM) | relative viability ([4]; first compound 0.8 µM) | relative viability ([4]; first compound 2.53 µM) | relative viability ([4]; first compound 8 µM)
1 | NCI-H2405 | 0.706 | 0.82 | 0.783 | 0.822 | 0.703 | 1.09 | 1.08 | 0.999 | 1.01 | 0.968 | 1.05 | 1.31 | 1.06 | 1.13 | 1.02 | 1.07 | 1.04 | 1.12 | 1.03
2 | NCI-H2009 | 0.765 | 0.727 | 0.798 | 0.695 | 0.713 | 0.994 | 1.05 | 0.97 | 0.975 | 0.953 | 1.11 | 1.06 | 1.09 | 1.05 | 1.26 | 1.19 | 1.23 | 1.24 | 1.19
3 | NCI-H441 | 0.599 | 0.66 |  | 0.716 | 0.577 | 0.271 | 0.242 |  | 0.263 | 0.253 | 0.282 | 0.223 | 0.252 | 0.266 | 1.01 | 0.913 |  | 0.801 | 0.968
4 | PC-3 [JPC-3] | 0.856 | 0.976 | 0.831 | 0.851 | 0.763 | 1.06 | 1.08 |  | 1.09 | 1.08 | 1.21 | 1.44 | 1.05 | 1.63 | 1.05 | 1.15 | 0.96 | 1.05 | 0.936
5 | HARA | 0.097 | 0.13 | 0.109 | 0.0913 | 0.0981 | 0.229 | 0.293 | 0.236 | 0.233 | 0.231 | 0.265 | 0.306 | 0.255 | 0.24 | 0.751 | 0.878 | 0.756 | 0.6 | 0.738
6 | NCI-H2126 | 0.844 | 0.834 | 0.812 | 0.843 | 0.786 | 0.657 | 0.619 | 0.696 | 0.665 | 0.691 | 0.758 | 0.716 | 0.777 | 0.656 | 1.18 | 1.04 | 1.16 | 1.13 | 1.2
7 | NCI-H1437 | 0.405 | 0.38 | 0.409 | 0.372 | 0.389 | 0.31 | 0.307 | 0.325 | 0.296 | 0.283 | 0.332 | 0.37 | 0.291 | 0.354 | 1.21 | 1.2 | 1.19 | 1.23 | 1.11
8 | ChaGo-K-1 | 0.242 | 0.245 | 0.222 | 0.209 | 0.23 | 0.261 | 0.256 | 0.259 | 0.258 | 0.268 | 0.266 | 0.279 | 0.266 | 0.258 | 0.915 | 0.924 | 0.974 | 0.901 | 0.976
9 | COR-L23 | 0.208 | 0.195 | 0.256 | 0.23 | 0.201 | 0.188 | 0.203 | 0.202 | 0.2 | 0.21 | 0.188 | 0.19 | 0.208 | 0.206 | 0.843 | 1.02 | 1.02 | 0.986 | 0.962
10 | COR-L 105 | 0.357 | 0.357 | 0.331 | 0.336 | 0.316 | 1.09 | 1.01 | 1.18 | 1.11 | 0.956 | 1.1 | 1.09 | 1.05 | 1.02 | 1.14 | 0.99 | 1.02 | 1.07 | 1.03
11 | LK-2 | 0.159 | 0.178 | 0.204 | 0.195 | 0.17 |  | 0.252 | 0.336 | 0.293 | 0.279 | 0.311 | 0.3 | 0.306 | 0.266 | 1.36 | 0.816 | 1.36 | 1.2 | 1.44
12 | 201T | 0.871 | 0.896 | 0.974 | 0.898 | 0.902 | 0.334 | 0.368 |  | 0.304 | 0.351 | 0.346 | 0.382 | 0.368 | 0.307 | 1.05 | 1.04 |  | 1.13 | 1.13
13 | NCI-H650 | 0.689 | 0.768 | 0.691 | 0.731 | 0.696 | 0.882 | 0.884 | 0.908 | 0.742 | 1.01 | 0.87 | 0.987 | 1.13 | 0.857 | 0.966 | 1.03 | 1.05 | 1.07 | 0.962
14 | H3255 | 0.735 | 0.473 | 0.466 | 0.457 | 0.609 | 0.569 | 0.538 | 0.61 | 0.562 | 0.548 | 0.592 | 0.563 | 0.605 | 0.577 | 0.92 | 0.881 | 0.897 | 0.797 | 0.792
